Assay results as given in BindingDB's records for doi:10.1021/jm801126a (Cornell University, 2009).

Target: T1, S-adenosylmethionine decarboxylase proenzyme (Homo sapiens, UniProt P17707)
T1 sequence (P17707 whole entry): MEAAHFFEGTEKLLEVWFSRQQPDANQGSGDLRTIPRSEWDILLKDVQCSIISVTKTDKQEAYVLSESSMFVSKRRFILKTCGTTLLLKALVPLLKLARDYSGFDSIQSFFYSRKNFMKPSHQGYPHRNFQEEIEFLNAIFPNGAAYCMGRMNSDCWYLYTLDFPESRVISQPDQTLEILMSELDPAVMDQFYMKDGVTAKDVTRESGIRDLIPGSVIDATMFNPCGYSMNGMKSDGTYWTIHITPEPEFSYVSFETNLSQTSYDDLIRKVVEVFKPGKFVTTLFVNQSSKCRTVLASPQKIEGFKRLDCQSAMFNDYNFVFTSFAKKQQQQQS
Assay: AdoMetDC Inhibition Assay
Experimental: The C-terminal his-tagged AdoMetDC was assayed by measuring the release of 14CO2 from S-adenosyl-L-[carboxy-14C]methionine (Amersham Pharmacia Biotech). For determination of the abilities of compounds to inhibit AdoMetDC, the enzyme activity was determined in the presence of no inhibitor and at least five concentrations of each potential inhibitor. The IC50 values were determined from curve fitting to plots of the inhibitor concentration versus the % inhibition of AdoMetDC.

C[S+](C)C[C@H]1O[C@@H](n2cnc3c(N)ncnc32)[C@H](O)[C@@H]1O [{[(2S,3S,4R,5R)-5-(6-amino-9H-purin-9-yl)-3,4-dihydroxyoxolan-2-yl]methyl}dimethylsulfanium chloride]
IC50: 15 µM
